Structures are written as SMILES. Where two headings read alike, the source gives them in different places.

The values that follow come from publication PMC6961518, “Fe-HBED Analogs: A Promising Class of Iron-Chelate Contrast Agents for Magnetic Resonance Imaging” (Contrast Media & Molecular Imaging, 2019).

Data set [1] concerns the target bovine serum albumin (Bos taurus, UniProt P02769). Briefly: Serum protein binding assay (ultrafiltration, UV-Vis). In kind it is in vitro ADME. Conditions: bovine serum albumin 8 wt.% in PBS, 1 hour at room temperature, 30 kDa filter. The protocol:
A 5 mM stock solution of the iron chelate complex under investigation was prepared in PBS, and the UV/visible spectrum of the solution was acquired to determine the wavelength of the absorbance maximum (λmax). An aliquot of the stock solution (500 μL) was added to a PBS solution (2 mL) containing bovine serum albumin (8 wt.%). A control sample was prepared by diluting a second aliquot of the stock solution (500 μL) with PBS (2 mL). The samples were vortexed briefly and then allowed to stand for 1 hour at room temperature. At the stipulated time, the resulting solutions were transferred to Amicon Ultra filters (4 mL, MWCO = 30 kDa). The solutions were centrifuged (3000 rcf, 15 min), and the permeate was taken directly for UV-Vis measurement. The wavelength and intensity of λmax in the visible region for the solution were recorded. The relative amount of free and protein-bound agent was calculated from the λmax intensity ratio of the assay to control samples.

The nature of data set [2]: Relaxivity determination (r1, r2) on Bruker minispec mq60. In kind it is physicochemical. Conditions: PBS, 60 MHz, 40°C. The protocol:
A stock solution having a concentration of 1 mM of the CA of interest was prepared in phosphate-buffered saline (PBS), and the iron concentration was verified by elemental analysis. Separate 0.75 mM, 0.50 mM, and 0.25 mM samples were prepared from the stock by dilution in PBS, and T1 and T2 relaxations times were recorded in triplicate for each sample on a Bruker minispec mq60 instrument (60 MHz, 40°C). The relaxivities (r1 and r2) were obtained as the gradient of 1/Tx (x = 1, 2) plotted against Fe chelate concentration following linear least squares regression analysis.

Data set [3] is described as follows: Ascorbic acid oxidation assay (redox stability). Conditions: iron chelate 20 μM (30 mol%), ascorbic acid 67 μM in PBS, 45 minutes, air oxidation. How it is done: The UV-Vis spectrum of an ascorbic acid solution (67 μM and 12 μg/mL) in PBS (3 mL) was recorded. The absorbance intensity at λmax = 265 nm was observed. An aliquot (30 μL) of the iron chelate of ethylenediaminetetraacetic acid (Fe-EDTA) in PBS (2 mM, 0.7 mg/mL) was added to afford a catalytic quantity of Fe-EDTA (20 μM, 30 mol%) with respect to ascorbic acid. The absorbance intensity (λmax = 265 nm) was recorded at intervals of 1 minute for a period of 45 minutes and the data normalized to the t0 absorbance. The experiment was then repeated identically using a solution of the iron chelate complex under investigation (20 μM, 30 mol%), and the results were plotted as a function of the percent initial ascorbic acid signal versus elapsed time (min).

On the set-up of data set [4]: method as in PMID 16230904. Conditions: in water at 1.5 T; cited from earlier work.
The conditions of data set [5]: cited from earlier work.

Chain of bovine serum albumin (P02769 25-607): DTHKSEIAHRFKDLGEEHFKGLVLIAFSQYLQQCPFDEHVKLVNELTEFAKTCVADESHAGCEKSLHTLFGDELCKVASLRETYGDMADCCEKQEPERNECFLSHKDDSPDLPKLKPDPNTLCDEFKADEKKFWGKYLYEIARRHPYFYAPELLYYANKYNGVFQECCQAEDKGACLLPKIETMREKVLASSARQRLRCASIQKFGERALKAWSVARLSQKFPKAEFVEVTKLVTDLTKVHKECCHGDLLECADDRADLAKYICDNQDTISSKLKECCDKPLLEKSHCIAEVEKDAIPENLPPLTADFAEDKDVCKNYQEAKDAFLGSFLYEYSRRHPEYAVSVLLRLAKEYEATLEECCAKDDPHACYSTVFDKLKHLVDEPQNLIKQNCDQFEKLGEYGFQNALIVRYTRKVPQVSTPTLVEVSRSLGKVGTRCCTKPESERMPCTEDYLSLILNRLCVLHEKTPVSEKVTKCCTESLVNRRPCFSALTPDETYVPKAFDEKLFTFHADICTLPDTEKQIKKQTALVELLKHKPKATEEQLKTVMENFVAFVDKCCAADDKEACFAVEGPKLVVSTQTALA

As for `O=C1CN2CCN3CC(=O)[O][Fe]([O]1)([O]c1ccccc1C2)[O]c1ccccc1C3` [Fe-1], the Protein binding in data set [1] amounted to 33%. In addition, the r1 in data set [2] was 0.49 mM⁻¹ s⁻¹. `O=P1(O)CN2CCN3Cc4ccccc4[O][Fe]([O]c4ccccc4C2)([O]1)[O]P(=O)(O)C3` [Fe-3] registered a Protein binding in data set [1] of 49%. The same molecule gave a r1 in data set [2] of 1.3 mM⁻¹ s⁻¹. For the same molecule, in data set [3], the “pseudo-first-rate time constant for ascorbic acid consumption, relative to Fe-EDTA” value was below 0.5%. In data set [2], `O=C1CN2CCN3CC(=O)[O][Fe]([O]1)([O]c1ccc(S(=O)(=O)O)cc1C2)[O]c1ccc(S(=O)(=O)O)cc1C3` [Fe-2] yielded a r1 of 0.9 mM⁻¹ s⁻¹. In addition, the “pseudo-first-rate time constant for ascorbic acid consumption, relative to Fe-EDTA” value in data set [3] is reported as below 0.5%.

As to `CNC[C@H](O)[C@@H](O)[C@H](O)[C@H](O)CO.CNC[C@H](O)[C@@H](O)[C@H](O)[C@H](O)CO.O=C([O-])CN(CCN(CC(=O)[O-])CC(=O)O)CCN(CC(=O)[O-])CC(=O)O.[Gd+3]` [Gd-1, Gadopentetate dimeglumine], the r1 in data set [4] was 3.3 mM⁻¹ s⁻¹. For `O=P1(O)CN2CCN3Cc4cccc(CO)c4[O][Fe]([O]c4c(CO)cccc4C2)([O]1)[O]P(=O)(O)C3` [Fe-4], the Protein binding in data set [1] is reported as 20%. For the same molecule, the r1 in data set [2] worked out at 0.9 mM⁻¹ s⁻¹. For `O=C(O)CN(CCN(CC(=O)O)Cc1ccccc1O)Cc1ccccc1O` [HBED, N,N′-bis(2-hydroxyphenyl)ethylenediamine-N,N′-diacetic acid], in data set [5], the “log K (Fe[III] binding)” value is recorded as 39.7.
